The target of one assay is Bla (Escherichia coli, UniProt P62593). The following applies: cited from earlier work.
Assay [1] concerns Bla-stably-transfected C6 glioma cells. The assay can be described thus: Fluorescence imaging of Bla activity in living cells. The class given is cell-based. The settings on record: loaded in Hank's Balanced Salts Solution 25 min, room temperature; excitation 540/25, emission 635/55. How it is done: FIG. 13A illustrates the structures of CR2 and CR2/AM. FIG. 13B presents fluorescence images (40×magnification) of wild type (right) and Bla-stably-transfected (left) C6 glioma cells loaded with CR2/AM in Hank's Balanced Salts Solution for 25 min at room temperature. The excitation filter was set at 540/25 (540 nm peak with a width of 25 nm around the peak). The emission filter was set at 635/55.

Bla, sequence (P62593 24-286 limits assumed): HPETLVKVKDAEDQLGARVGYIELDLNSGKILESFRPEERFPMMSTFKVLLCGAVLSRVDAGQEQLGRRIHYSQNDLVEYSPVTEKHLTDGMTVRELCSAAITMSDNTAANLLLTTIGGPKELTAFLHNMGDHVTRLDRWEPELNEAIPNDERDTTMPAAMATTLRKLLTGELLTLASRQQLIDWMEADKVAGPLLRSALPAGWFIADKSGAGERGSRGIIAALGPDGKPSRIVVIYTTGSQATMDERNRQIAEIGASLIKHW

In the case of `O=C(CNC(=O)c1cc2cc(Cl)c(O)cc2oc1=O)N[C@@H]1C(=O)N2C(C(=O)O)=C(CSc3ccc4c(c3)C(=O)OC43c4ccc(O)cc4Oc4cc(O)ccc43)CS[C@H]12` [CCF2], on Bla (Zlokarnik et al., Science 1998), the Km is 23 µM and the catalytic constant (kcat) was 29 s⁻¹. The “enhancement of fluorescent emission” value at Bla (at similar wavelengths (about 460 nm)) is on record as 20 fold.
Take `CC(=O)OCOC(=O)C1=C(/C=C\COc2ccc3nc4ccc(=O)cc-4oc3c2)C[S@H](O)[C@@H]2[C@H](NC(=O)Cc3cccs3)C(=O)N12` [CR2/AM]: in assay [1], the “imaging of Bla activity in living cells” value is recorded as “able to image the Bla activity”.

The record behind these values is patent publication US7427680B2, “Fluorogenic substrates for BETA-lactamase gene expression” (The Regents of the University of California, priority 2001, dated 2008).
